Results on one compound are retold here after PMC6581923 (Journal of Molecular Neuroscience, 2018).

“Also recorded” adds a separate entry of the source.

Holding throughout (assay type): in vivo, rat (male)
The subject of series [1] is retina (BCCAO-induced retinopathy). The series can be described thus: Retinal layer thickness / morphology after bilateral carotid artery occlusion (BCCAO), eye drops. As for the experimental part:
(§1) Adult male rat litters were housed in the animal facility in individual cages in a 12 h light-dark cycle with food and water ad libitum. Animal housing, care and application of experimental procedures were in accordance with institutional guidelines under approved protocols (No: BA02/2000–26/2017, University of Pecs). Under isoflurane anesthesia, common carotid arteries were exposed on both sides through a midline incision and then ligated with a 3–0 filament. A group of animals (sham group) underwent all steps of the operating procedure except ligation of the carotid arteries. Immediately following the operation, the right eye of the animals was treated with derivatives of PACAP (PACAP-TAT /n = 17/ or VIP-TAT /n = 17/) eye drops (1 μg/drop). Dose and schedule of the eye drop treatments were based on our previous experiments (Werling et al. [2016]). In the experiment for histological analysis, the different derivatives were dissolved in benzalkonium solution for ophthalmic use (solutio ophthalmica cum benzalkonio (SOCB)). The left eye, serving as a control, was treated with vehicle containing neither PACAP-TAT nor VIP-TAT. Animals were treated for five consecutive days, twice a day with one drop of drug, under brief isoflurane anesthesia (max. 5 min).
(§2) Fourteen days after the operation, rats (n = 10 SHAM and n = 24 BCCAO) were killed with anesthetic and the eyes were processed for histology. The eyes were removed and the retinas were solved in phosphate buffered saline (PBS), fixed in 4% paraformaldehyde dissolved in 0.1 M phosphate buffer (PB) (Sigma, Budapest, Hungary) and embedded in Durcupan ACM resin (Sigma, Budapest, Hungary). Retinas were cut at 2 μm and stained with toluidine blue dye (Sigma, Hungary). Sections were mounted in DPX medium (Sigma, Hungary) and photographs were taken with a digital CCD camera using the Spot program. Central retinal areas within 1 mm from the optic nerve were used (n = 5 measurements from one tissue block). The following parameters were measured: (i) cross-section of the retina from the outer limiting membrane (OLM) to the inner limiting membrane (ILM), (ii) the width of individual retinal layers (outer nuclear layer [ONL], outer plexiform layer [OPL], inner nuclear layer [INL], inner plexiform layer [IPL]), (iii) the number of cells/100 μm section length in the GCL, and the (iv) number of cells/[…]. Results are presented as mean ± SEM. Statistical comparisons were made using the two-way ANOVA test followed by Tukey’s post hoc analysis.
Fig. 4 Quantification of retinal layers in SHAM+SOCB, in SHAM+PACAP-TAT, in BCCAO+SOCB, and in BCCAO+PACAP-TAT animals; the right eye was treated with PACAP-TAT eye drops, the left eye served as controls receiving only SOCB. Comparison of all retinal layers (a–e). […] Statistical significance (*p < 0.05 vs. SHAM+SOCB retinas, #p < 0.05 vs. BCCAO+SOCB retinas) was calculated by two-way ANOVA followed by Fischer’s post hoc test
Fig. 6 Quantification of retinal layers in SHAM+SOCB, in SHAM+VIP-TAT, in BCCAO+SOCB, and in BCCAO+VIP-TAT animals; the right eye was treated with VIP-TAT eye drops, the left eye served as control receiving only SOCB. Comparison of all retinal layers (a–e). […] Statistical significance (*p < 0.05 vs. SHAM+SOCB retinas, #p < 0.05 vs. BCCAO+SOCB retinas) was calculated by two-way ANOVA followed by Fischer’s post hoc test

Series [2] in a line: Efficiency of Traversing Eye to Retina (EtE) of FITC labeled peptides given in eye drops. On the procedure: In order to trace the drugs, peptides were labeled with fluorescein isothiocyanate (FITC) using a FITC Protein Labeling Kit from ChangRu Biotech Ltd. (Guangzhou, China) according to the manufacturer’s protocol. After the labeling reaction, gel filtration was used to remove the free FITC. In order to determine the amount of the residual free FITC, the peptides were submitted to ultrafiltration using Amicon Ultra – 0.5 mL (Millipore, USA) with a molecular sieve of 2000 Da. After centrifugation (1000×g, 10 min) the peptide was subjected to fluorescence measurements performed with the multi-wavelength scanner Victor 3 (GE, USA) at the excitation of 495 nm and the emission of 520 nm. Protein concentrations were determined using the K4000 Bradford Protein Quantification Kit (Innovative, Guangzhou, China). The labeling efficiency was calculated using the following formula: label efficiency (LE) = fluorescence value (FV)/peptide mass (mol) (PM), representing the fluorescence intensity (AU) per mol of peptide (mol).
Male rats with body weight from 160 to 180 g were purchased from the Medical and Experimental Animal Center (Guangdong, China). Rats were randomly assigned to one of the experimental groups (7 rats per group) and subjected to eye drops with FITC labeled peptides (100 nmol/kg) and PBS as control. Rats were sacrificed by anesthesia 2 h after the eye drop administration and the retina was separated, weighed, washed three times with PBS and divided into two parts. One part was prepared on the glass slide with glycerin and subjected to fluorescence microscopic observation of FITC with 495 nm excitation/520 nm emission. All images, focused on the left upper regions of the retina, were taken with 500 ms exposure time. The other part of the retina was subjected to grinding and ultrasonication in PBS at a concentration of 100 mg weight tissue per milliliter of PBS. The supernatant was collected by centrifugation and the fluorescence intensity in the supernatant (100 uL) was determined. The valid fluorescence intensity (FI) for each sample treated with FITC labeled peptide was corrected by subtracting the fluorescence value of the sample treated with PBS, which was used as a blank background. The Efficiency of Traversing Eye to Retina (EtE) was expressed as the percentages of the FITC labeled peptide mass in the retina to the total FITC labeled peptide mass. The EtE was calculated using the following formula: EtE = tFI/LE/PW × 100% (tFI presents the fluorescence intensity of retina (arbitration unit, AU); LE presents the label efficiency of each peptide which has been determined above; PW presents the peptide mass (mole)).
Fig. 1 The efficiency of FITC labeled PACAP/PACAP-TAT (a, b) and VIP/VIP-TAT (c, d) traversing to retina given in eye drops. The retina was separated 2 h after the eye drops and submitted to the fluorescence microscopic observation of FITC fluorescence signal (A, C) and the calculation of Efficiency of Traversing Eye to Retina (EtE) (b, d). The data are means ± SEM of four experiments

For series [3], the system named is retina (BCCAO-induced retinopathy). The series can be described thus: Number of cells in retinal nuclear layers and GCL after BCCAO, eye drops. Particulars: eye drops 1 μg/drop, twice a day, five days, vs BCCAO-induced degenerated retinas, 14 days. On the procedure: as §1, §2
Fig. 5 Quantification of the number of cells/100 μm GCL length (a), the number of cells/500 μm^2 ONL (b) and INL (c) areas in SHAM+SOCB, in SHAM+PACAP-TAT, in BCCAO+SOCB, and in BCCAO+PACAP-TAT animals. Statistical significance (*p < 0.05 vs. SHAM+SOCB retinas, #p < 0.05 vs. BCCAO+SOCB retinas) was calculated by two-way ANOVA followed by Bonferroni’s post hoc test
Fig. 7 Quantification of the number of cells/100 μm GCL length (a), the number of cells/500 μm^2 ONL (b) and INL (c) areas in SHAM+SOCB, in SHAM+VIP-TAT, in BCCAO+SOCB, and in BCCAO+VIP-TAT animals. Statistical significance (*p < 0.05 vs. SHAM+SOCB retinas, #p < 0.05 vs. BCCAO+SOCB retinas) was calculated by two-way ANOVA followed by Bonferroni’s post hoc test

With `CC[C@H](C)[C@H](NC(=O)CNC(=O)[C@H](CC(=O)O)NC(=O)[C@H](CO)NC(=O)[C@@H](N)Cc1c[nH]cn1)C(=O)N[C@@H](Cc1ccccc1)C(=O)N[C@H](C(=O)N[C@@H](CC(=O)O)C(=O)N[C@@H](CO)C(=O)N[C@@H](Cc1ccc(O)cc1)C(=O)N[C@@H](CO)C(=O)N[C@@H](CCCNC(=N)N)C(=O)N[C@@H](Cc1ccc(O)cc1)C(=O)N[C@@H](CCCNC(=N)N)C(=O)N[C@@H](CCCCN)C(=O)N[C@@H](CCC(N)=O)C(=O)N[C@@H](CCSC)C(=O)N[C@@H](C)C(=O)N[C@H](C(=O)N[C@@H](CCCCN)C(=O)N[C@@H](CCCCN)C(=O)N[C@@H](Cc1ccc(O)cc1)C(=O)N[C@@H](CC(C)C)C(=O)N[C@@H](C)C(=O)N[C@@H](C)C(=O)N[C@H](C(=O)N[C@@H](CC(C)C)C(=O)NCC(=O)N[C@@H](CCCCN)C(=O)N[C@@H](CCCNC(=N)N)C(=O)N[C@@H](Cc1ccc(O)cc1)C(=O)N[C@@H](CCCCN)C(=O)N[C@@H](CCC(N)=O)C(=O)N[C@@H](CCCNC(=N)N)C(=O)N[C@H](C(=O)N[C@@H](CCCCN)C(=O)N[C@@H](CC(N)=O)C(=O)N[C@@H](CCCCN)C(=O)NCC(=O)N[C@@H](CCCNC(=N)N)C(=O)N[C@@H](CCCCN)C(=O)N[C@@H](CCCCN)C(=O)N[C@@H](CCCNC(=N)N)C(=O)N[C@@H](CCCNC(=N)N)C(=O)N[C@@H](CCC(N)=O)C(=O)N[C@@H](CCCNC(=N)N)C(=O)N[C@@H](CCCNC(=N)N)C(=O)N[C@@H](CCCNC(=N)N)C(=O)N1CCC[C@H]1C(=O)N[C@@H](CCC(N)=O)C(=O)O)C(C)C)C(C)C)C(C)C)[C@@H](C)O` [PACAP-TAT], the “OPL preservation after BCCAO” value in series [1] (BCCAO + eye drops, OPL almost disappeared in several BCCAO-induced degenerated retinas) is “preserved”. Besides, in series [1] (BCCAO + eye drops, toluidine blue sections, 14 days, severe degeneration in BCCAO+SOCB), the “Retinal degeneration in light microphotographs after BCCAO” value was “only mild degeneration”. Besides, the “Retinoprotective efficacy of eye drops, overall / compared with untagged peptide” value in series [1] (BCCAO, topical eye drops in SOCB) is listed as “attenuate ischemic retinal degeneration via the PAC1 receptor; also recorded: did not prove to have significantly higher retinoprotective efficacy than untagged PACAP”. Further, the “Retinal layer thickness (OLM-ILM, ONL, OPL, INL, IPL) after BCCAO” value in series [1] (BCCAO, eye drops 1 μg/drop, twice a day, five consecutive days, in SOCB, right eye, left eye SOCB control, 14 days, p < 0.05 vs. BCCAO+SOCB) is on record as “significant amelioration in all retinal layers; also recorded: improved the structure of all the retinal layers”. The “Change of retinal thickness in sham animals” value in series [1] (eye drops alone in sham animals, 1 μg/drop, twice a day, five consecutive days, in SOCB, histology 14 days after operation) is “did not cause any changes in the retinal thickness”. Moreover, in series [2] (FITC labeled peptides, eye drops 100 nmol/kg, retina separated 2 h after, fluorescence 495 nm excitation/520 nm emission, % of FITC labeled peptide mass in retina to total, means ± SEM of four experiments (7 rats per group)), the “Efficiency of Traversing Eye to Retina (EtE)” value worked out at 3.66 ± 0.67%. For the same compound, the “EtE relative to the untagged peptide” value in series [2] (PACAP-TAT/VIP-TAT vs PACAP/VIP, respectively, eye drops 100 nmol/kg, 2 h) is given as “about three-fold that of PACAP/VIP”. Further, the “FITC fluorescence density per area unit in the retina” value in series [2] (fluorescence microscopy of retina 2 h after eye drops of FITC labeled peptides (100 nmol/kg), vs PACAP/VIP) is recorded as “much higher than in retinas treated with eye drops of PACAP/VIP”. Further, in series [3], the “Number of cells in the GCL/100 μm after BCCAO” value is recorded as “significantly higher compared to the BCCAO-induced degenerated retinas”, the “Number of cells in the INL/500 μm2 after BCCAO” value is listed as “significantly higher compared to the BCCAO-induced degenerated retinas” and the “Number of cells in the ONL/500 μm2 after BCCAO” value is recorded as “significantly higher compared to the BCCAO-induced degenerated retinas”.
